{
  "source": "patent US20260234630A1",
  "about": "“Methods for Treating Multiple Myeloma” (Celgene Corporation, priority 2022, published 2026)",
  "assay_type_in_all_cases": "cell-based",
  "key": {"[1]": {"tested_on": "UHRF1", "experiment": "Immunocytochemistry assay of UHRF1 in H929 cells", "details": "48 hours after 1 μM POM", "experimental": "FIG. 6A-6D. […] (6A) Immunocytochemistry assay of UHRF1 in H929 cells treated with DMSO or 1 μM POM for 48 hrs. (6B) qRT-PCR analysis of UHRF1 gene expression levels in indicated MM cells treated with indicated doses of POM for 3 days. Data was normalized to ACTB. Error bars represent the SEM from duplicate measurements. * P<0.05, ** P<0.01, *** P<0.001, **** P<0.0001 (Two-tailed Student's t-test). (6C) Western blot analysis protein expression of UHRF1, Ikaros, Aiolos, ZFP91 and Celebron in H929 cells treated with 1 μM POM or 0.1 μM CC-220 for 3 days. DMSO, vehicle control. (6D) Western blot analysis protein expression of UHRF1, Ikaros, Aiolos, ZFP91 and Celebron in H929 or RPMI 8226 cells treated with 1 μM POM, 0.1 μM CC-220 or 0.01 μM CC-480 for 3 days. DMSO, vehicle control."}, "[2]": {"tested_on": "UHRF1 mRNA", "experiment": "qRT-PCR of UHRF1 gene expression in MM cells", "experimental": "(§1) FIG. 1A-1F. Down regulation of UHRF1 transcription by IMiDs correlates with drug sensitivity of multiple myeloma. (1A) Volcano plot of protein expression changes determined by mass spectrometry in H929 cells at 24 hr of treatment with CC-220 (0.1 μM) or DMSO control. X axis, Log2fold change (FC); Y axis, significance,-log 10 [p-value]. […] (1B) Volcano plot of gene expression changes determined by Affymetrix microarray in H929 cells treated with POM (1 μM) or DMSO for 24 hr. X axis, Log2fold change (FC); Y axis, significance,-log 10 [p-value], n=2 technical replicates). […] (1C) Western blot analysis protein expression of UHRF1, Ikaros, Aiolos and ZFP91 in H929 cells treated with 1 μM POM for indicated time. (1D) qRT-PCR analysis of UHRF1 gene expression levels in cells as in (1C). Error bars represent the SEM from duplicate measurements. (1E) Western blot analysis protein expression of UHRF1 and indicated proteins in MM cells treated with DMSO (−) or 1 μM POM (+) for 3 days. GAPDH serves as a loading control. (1F) Thymidine incorporation of various MM cell lines treated with indicated dose of POM for 3 days. Error bars represent the SEM from technical replicates.\nFIG. 2A-2E. UHRF1 expression is positively regulated by Ikaros and Aiolos in IMiDs sensitive MM cells. (2A) Western blot analysis protein expression of UHRF1, Ikaros, Aiolos, ZFP91 and Cereblon expression in control [shLuciferase (shLuc)] and cereblon knockdown (shCRBN) H929 cells treated with DMSO and 1 μM POM for 3 days. GAPDH, loading control. Arrow head, UHRF1. (2B) qRT-PCR analysis of UHRF1 gene expression levels in cells as in (2A). Data was normalized to ACTB. Error bars represent the SEM of technical duplicates. *** P<0.001 (Two-tailed unpaired Student's t-test). (2C) Western blot analysis protein expression of UHRF1, Ikaros and Aiolos in stably transduced H929 cells after Dox induction (0, 10, 50 or 100 ng/ml) for 3 days of non-target shRNA (shNT) or shRNAs targeting Ikaros (shIKZF1) or Aiolos (shIKZF3). (2D) qRT-PCR analysis of UHRF1 gene expression levels in cells as in (2C). Shown are cells induced with Dox (50 ng/ml) for 3 days. Data was normalized to GAPDH. Error bars represent the SEM of technical duplicates. *P<0.05, ** P<0.01, *** P<0.001, **** P<0.0001 (Two-tailed unpaired Student's t-test). (2E) ChIP-qPCR analysis of the occupancy Aiolos (upper panel) or H3K27ac (lower panel) occupancy at transcription star site (TSS), gene body (+7 kb) and gene end (GE) of UHRF1 gene in H929, MM1.S or RPMI 8226 cells treated with DMSO or 1 μM POM for 24 hr. ChIP with control rabbit IgG (IgG) serves as a negative control. Error bars represent the SEM of technical triplicates. * P<0.05, ** P<0.01, **** P<0.0001 (Two-tailed unpaired Student's t-test).\nFIG. 6A-6D. […] (6A) Immunocytochemistry assay of UHRF1 in H929 cells treated with DMSO or 1 μM POM for 48 hrs. (6B) qRT-PCR analysis of UHRF1 gene expression levels in indicated MM cells treated with indicated doses of POM for 3 days. Data was normalized to ACTB. Error bars represent the SEM from duplicate measurements. * P<0.05, ** P<0.01, *** P<0.001, **** P<0.0001 (Two-tailed Student's t-test). […]\nTotal RNA was extracted by RNeasy Mini Kit (Qiagen) and reverse transcribed by iScrip cDNA Synthesis Kit (Bio-rad). Quantitative real-time PCR (qPCR) was conducted on a VillA 7 System using the Power SYBR Green PCR Master Mix (Applied Biosystems). Gene expression values were calculated by normalization to Actb using the comparative CT method."}, "[3]": {"tested_on": "IRF4 and c-Myc", "experiment": "Western blot of IRF4 and c-Myc in MM cells", "details": "MM1.S, DF15 and U266 cells; 1 μM POM, 3 days", "experimental": "as §1, with “(1F) Thymidine incorporation of various MM cell lines treated with indicated dose of POM for 3 days. Error bars represent the SEM from technical replicates.” left out\nCells were lysed with cell lysis buffer (50 mM TrisHCl pH7.4, 250 mM NaCl, 0.5% Triton X100, 10% glycerol) supplemented with protease inhibitor cocktail. […] The protein concentration was measured by a Bradford Protein Assay (Bio-Rad). […] Proteins of interested were detected incubation with primary antibodies listed below at 4° C. overnight. […]"}},
  "data": [
    {"smiles": "Nc1cccc2c1C(=O)N(C1CCC(=O)NC1=O)C2=O", "note": "(stereo not drawn) [POM, pomalidomide]", "values": [
      {"measurement": "UHRF1 protein by immunocytochemistry", "setting": "[1]", "value": "nearly undetectable"},
      {"measurement": "UHRF1 mRNA", "setting": "[2]; H929, MM1.S and U266 cells, indicated doses of POM, 3 days", "value": "dose dependent downregulation"},
      {"measurement": "time to profound reduction of UHRF1 mRNA level", "setting": "[2]; H929 cells, POM 1 μM, time course", "value": "up to 24 hours"},
      {"measurement": "UHRF1 gene expression", "setting": "[2]; drug sensitive MM (FIG. 6 title)", "value": "downregulated"},
      {"measurement": "downregulation of UHRF1 mRNA by POM under cereblon knockdown", "setting": "[2]; shCRBN vs shLuc H929 cells, 1 μM POM, 3 days", "value": "rescue"},
      {"measurement": "IRF4 and c-Myc expression", "setting": "[3]", "value": "downregulated"}
    ]}
  ]
}
